Measured values as given in patent US20220089646A1 (THE UNIVERSITY OF QUEENSLAND, priority 2019, published 2022).
Where two headings read alike, the source gives them in different places. *1 amine or outer side, *2 acyl side, *3 side chain or, on linkers, in order; H or OH if unused. Where a SMILES comes first, the peptide text is derived from it. Bridges are numbered along the chain shown (N, C = ends). [ ]: non-standard residue; d: D form. NHCH2CMe2S = CC(C)(CN[*:1])S[*:2]

Legend:
[1] = Serum stability; type: in vitro ADME; conditions: rat
Method: Purified DP-7-11 (1 mg/mL) was dissolved in 0.1 M ammonium bicarbonate (NH4HCO3) buffer. To prepare a stock trypsin solution, 1 mg trypsin was dissolved in 50 mL of 0.1 M NH4HCO3 buffer. Equal volumes of the stock trypsin solution (62.5 μL) and DP-7-11 solution (62.5 μL) were incubated in 375 μL of 0.1M NH4HCO3 buffer in a 37° C. water bath. Aliquots of 100 μL were collected from this mixture at set time intervals of 0 min, up to 24 hours. Ice-cold acetonitrile containing 0.5% TFA was used to quench the reaction between DP-7-11 and trypsin at predetermined intervals, and just prior to HPLC or LC-MS analysis. The quenched samples were vortexed for 10 minutes followed by centrifugation at 12,000 rpm for a further 15 minutes. Supernatant was sampled and analysed using analytical RP-HPLC or LC-MS. Samples without trypsin acted as negative controls and were sampled at two intervals of 0 hour and 6 hours.
Serum stability of DP-7-11 was also performed. In this regard, rat serum replaced trypsin and NH4HCO3 buffer. Water was used as negative control in place of serum, with the stability study performed in an identical fashion to the trypsin study. […] DP-11-00 and DP-11-06 were tested in a similar manner.
As used in this serum and trypsin stability discussion, the term ‘degraded completely’ relates to the relevant compound being completely absent when tested. In other words, the compound being tested is not observed when tested.
This appears to indicate the improved metabolic stability of the present invention.
The serum and trypsin stability of DP-7-11 and DP-7-12 were tested (in some instances again) using LC-MS. The LC-MS utilized in this study was more sensitive than the LC-MS utilized in the above tests.

[2] = molecular target: MOP (Homo sapiens, UniProt P35372); assay: In vitro cAMP activity at MOP (Table 10); type: cell-based; conditions: cAMP inhibition, four-parameter regression
Method: (§1) The CP series compounds were assayed as follows: The assay was performed using a 96 well ½ area plate. The different cAMP standard solutions (3 μL/well) were plated in duplicate. The different concentrations of drug (3 μL/well), and control solutions (3 μL/well) were plated in triplicate. Following this, the acceptor bead mixture (3 μL/well) was added to the respective sets—either cAMP standard curve or the treatment. This was covered and incubated on the orbital shaker for 60 minutes at 37° C. Then, the donor bead mixture (10 μL/well) was added to each well. This was incubated at room temperature overnight on the orbital shaker.
(§2) For DP-11-06 the assay was carried out in the same way as for the CP compounds except it was incubated for 30 mins at 37° C.
(§3) For the CP series compounds and DP-11-06, the Ensight® Multimode Plate Reader was used to quantify the fluorescence units of each plate. Before reading, each plate was centrifuged at 280 g for 30 seconds. Using GraphPad Prism7® Software, cAMP concentrations were determined by fit spline/LOWESS analysis. The cAMP standard curve was used for interpolation at this point. The cAMP concentrations were then normalized to the highest cAMP concentration recorded and analyzed by one-way ANOVA for multiple comparisons. The IC50 for each compound was then calculated using GraphPad Prism7® with non-linear regression analysis using four parameter curve fitting.
In this regard, a different regression analysis method was adopted on the above cAMP experiments. Particularly, a new non-linear regression (four-parameter) was adopted to better account for hill slope, thereby improving the regression fit.

[3] = molecular target: KOP (Homo sapiens, UniProt P41145); assay: In vitro cAMP activity at KOP (Table 10); type: cell-based; conditions: cAMP inhibition, four-parameter regression, normalised to U50488H
Method: as §1, §2, §3
The results shown in Table 10 utilized rat plasma. • Note that DP-7-11 and CP5 represent the same compound, and DP-7-12 and CP6 are the same compound. In this regard, a different regression analysis method was adopted on the above cAMP experiments. Particularly, a new non-linear regression (four-parameter) was adopted to better account for hill slope, thereby improving the regression fit.

Chain of MOP (P35372 whole entry): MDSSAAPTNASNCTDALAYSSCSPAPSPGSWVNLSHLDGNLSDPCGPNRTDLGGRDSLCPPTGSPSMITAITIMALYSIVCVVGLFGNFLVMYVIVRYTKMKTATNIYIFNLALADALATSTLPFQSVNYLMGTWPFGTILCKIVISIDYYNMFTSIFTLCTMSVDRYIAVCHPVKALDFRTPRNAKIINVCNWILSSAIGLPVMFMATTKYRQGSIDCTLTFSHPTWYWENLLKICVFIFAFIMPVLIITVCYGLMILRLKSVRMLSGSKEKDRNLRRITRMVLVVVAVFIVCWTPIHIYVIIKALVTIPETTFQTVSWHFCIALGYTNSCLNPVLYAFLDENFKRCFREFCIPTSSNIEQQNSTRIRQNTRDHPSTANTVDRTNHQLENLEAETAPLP
Chain of KOP (P41145 whole entry): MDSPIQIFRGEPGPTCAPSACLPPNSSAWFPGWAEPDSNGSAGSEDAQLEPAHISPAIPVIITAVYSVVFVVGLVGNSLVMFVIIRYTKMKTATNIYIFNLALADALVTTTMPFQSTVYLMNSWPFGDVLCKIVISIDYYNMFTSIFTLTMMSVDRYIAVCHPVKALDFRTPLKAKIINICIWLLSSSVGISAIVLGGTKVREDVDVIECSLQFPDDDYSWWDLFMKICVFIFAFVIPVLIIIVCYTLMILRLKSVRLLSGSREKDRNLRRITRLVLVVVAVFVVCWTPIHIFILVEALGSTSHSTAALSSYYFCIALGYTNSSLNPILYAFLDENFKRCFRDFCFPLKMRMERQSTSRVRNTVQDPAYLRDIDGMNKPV

CC1(C)CNC(=O)C[C@@H](NC(=O)[C@@H](N)Cc2ccc(O)cc2)C(=O)NCC(=O)N[C@@H](Cc2ccccc2)C(=O)N[C@H](C(=O)N[C@@H](CCCNC(=N)N)C(=O)N[C@@H](CCCNC(=N)N)C(N)=O)CSS1 [DP-7-12, c(Tyr-D(Asp)-Gly-Phe-SSa-Arg-Arg)] (H-Y[dD]GFCRR-NH2; linker 2-5 via NHCH2CMe2S)
remaining at 1 h, 0.125 mg/mL ([1]; after 1 hr, read-out: Peptide still present in serum): ~67%
remaining at 2 h, 0.125 mg/mL ([1]; after 2 hours, read-out: Peptide still present in serum): ~20%
half-life at 0.125 mg/mL ([1]; more sensitive LC-MS (Table 8a), read-out: Incubation in serum: half-life): ~0.75 h
EC50 [2]: 2.7 nM
EC50 [3]: 160 nM

CC1(C)CNC(=O)C[C@H](C(=O)N[C@@H](CCCNC(=N)N)C(=O)N[C@@H](CCCNC(=N)N)C(N)=O)NC(=O)[C@H](Cc2ccccc2)NC(=O)CNC(=O)[C@@H](NC(=O)[C@@H](N)Cc2ccc(O)cc2)CSS1 [DP-7-11, c(Tyr-SSa-Gly-Phe-D(Asp)-Arg-Arg)]
half-life at 0.125 mg/mL ([1]; 37° C., LC-MS (Table 8), read-out: Serum half-life (converted)): 6 h
half-life at 0.125 mg/mL ([1]; more sensitive LC-MS (Table 8a), read-out: Incubation in serum: half life): > 6 h
metabolised at 6 h, 0.125 mg/mL ([1]; up to 6 h, more sensitive LC-MS, read-out: Degradation in serum): ~10%
EC50 [2]: > 10000 nM
EC50 [3]: > 10000 nM
